From US20090203744A1, “NOVEL PYRIDINE DERIVATIVES” (priority 2005, published 2009) come the findings set out here.

Each structure is given as a SMILES string.

The subject of the first assay is 3T3-L1 cells. Put plainly: Glucose uptake assay using 3T3-L1 cells. The format is cell-based. Particulars: differentiated 3T3-L1 adipocytes, 1 μM, 72 hours, 14C deoxyglucose uptake for 10 minutes; with reference to stimulation index of BLX-1002. As for the experimental part: 3T3-L1 cells were differentiated by the addition of differentiation cocktail (72 μg/ml insulin, 0.5 mM IBMX, 400 ng/ml Dexamethasone) for 4 days and later fed with media without differentiation cocktail for 7-8 days. After differentiation the cells were incubated with the either the reference compound BLX-1002 or compounds listed in the table 1 at 1 μM concentrations for 72 hours and carried out the glucose uptake assay for 10 minutes by the addition of KRP buffer supplemented with 2.5 μCi/ml ^14C deoxy glucose. Stimulation Index is defined as the amount of ^14C Deoxyglucose uptake induced by 1 μM of BLX-1002 incubated for 72 hours in an assay condition as per protocol described above with differentiated 3T3-L1 adipocytes. Values of compounds mentioned in table-1 are with reference to stimulation index of reference compound BLX-1002.
Turning to `CCN1C(=O)OC[C@@H]1Cc1ccc(Oc2ccc(Nc3ncccc3C#N)cc2F)cc1` [Example 13, 2-{[3-fluoro-4-(4-{[(4S)-3-ethyl-2-oxo-1,3-oxazolidin-4-yl]methyl}phenoxy)phenyl]amino}nicotinonitrile], the “Stimulation Index” value was 0.874.

As to `CN1C(=O)OC[C@@H]1Cc1ccc(Oc2ccc(Nc3ccccn3)cc2)cc1` [Example 1, 3-methyl-4-{4-[4-(pyridin-2-ylamino)phenoxy]benzyl}-1,3-oxazolidin-2-one], the “Stimulation Index” value is 0.827.

As for `CCN1C(=O)OC[C@@H]1Cc1ccc(Oc2ccc(Nc3ncccc3[N+](=O)[O-])cc2F)cc1` [Example 12, (4S)-4-[4-(2-fluoro-4-{[3-nitropyridin-2-yl]amino}phenoxy)benzyl]-3-ethyl-1,3-oxazolidin-2-one], the “Stimulation Index” value is recorded as 0.935.

As for `CN1C(=O)OC[C@@H]1Cc1ccc(Oc2ccc(Nc3ccc([N+](=O)[O-])cn3)cc2)cc1` [Example 2, (4S)4-(4-{4-[(5-nitropyridin-2-yl)amino]phenoxy}benzyl)-3-methyl-1,3-oxazolidin-2-one], the “Stimulation Index” value is recorded as 0.935.

Take `CCN1C(=O)OC[C@@H]1Cc1ccc(Oc2ccc(Nc3ccccn3)cc2F)cc1` [Example 8, (4S)-4-[4-(2-fluoro-4-{[5-pyridin-2-yl]amino}phenoxy)benzyl]-3-ethyl-1,3-oxazolidin-2-one]: the “Stimulation Index” value amounted to 1.049.

Regarding `CCN1C(=O)OC[C@@H]1Cc1ccc(Oc2ccc(Nc3ncccc3C#N)cc2)cc1` [Example 14, 2-[(4-{4-[(3-ethyl-2-oxo-1,3-oxazolidin-4-yl)methyl]phenoxy}phenyl)amino]nicotinonitrile], the “Stimulation Index” value amounted to 0.827.

A further assay has as its system Streptozotocin induced diabetic mice. In words: Antidiabetic activity in Streptozotocin induced diabetic mice. The format is in vivo. Particulars: plasma, 50 mg/kg oral for 7 days, fasted 6 hours, compared to control group. As for the experimental part:
Male Swiss albino mice were used in the study at the age of 10 weeks. Diabetes was induced in animals by injecting Streptozotocin by i.p. route at a dose of 200-mg/kg-body weight. 48 hours after Streptozotocin administration, the animals were kept for fasting for 6 hours and blood was collected and plasma separated and glucose was estimated. Animals showing greater than 200 mg/dl glucose levels were considered as diabetic and these animals were randomly distributed into various groups. The compounds listed in the table 2 were administered at a dose of 50-mg/kg body weight by oral route for 7 days. Later animals were fasted for 6 hours and blood was collected and plasma separated. Biochemical estimations like glucose, cholesterol and triglycerides were carried out using the plasma. The effect of compounds mentioned in the table was expressed in terms of percentage reduction in biochemical values as compared to control group.
For `CN(c1ccc(Oc2ccc(C[C@H]3COC(=O)N3C)cc2)cc1)c1ncccc1C#N` [Example 45, (4S)-2-[methyl(4-{4-[(3-methyl-2-oxo-1,3-oxazolidin-4-yl)methyl]phenoxy}phenyl)amino]nicotinonitrile], the “% Reduction Cholesterol” value is recorded as 10%, the “% Reduction Glucose” value came to 39% and the “% Reduction Triglyceride” value stood at 53.8%.

With `CCN(c1ccc(Oc2ccc(C[C@H]3COC(=O)N3CC)cc2)cc1)c1ncccc1C#N` [Example 24, (4S)-2-[ethyl(4-{4-[(3-ethyl-2-oxo-1,3-oxazolidin-4-yl)methyl]phenoxy}phenyl)amino]nicotinonitrile], the “% Reduction Cholesterol” value worked out at 15.9% and the “% Reduction Triglyceride” value is on record as 13.7%.

With `CN1C(=O)OC[C@@H]1Cc1ccc(Oc2ccc(Nc3ncccc3C#N)cc2F)cc1` [Example 22, 2-{[3-fluoro-4-(4-{[(4S)-3-methyl-2-oxo-1,3-oxazolidin-4-yl]methyl}phenoxy)phenyl]amino}nicotinonitrile], the “% Reduction Triglyceride” value is reported as 5.2%.
